# Results as given in ChEMBL document CHEMBL1130794, “Phthalimidomethyl as a drug pro-moiety. Probing its reactivity” (Bioorg Med Chem Lett, 1998).
# Assay: Second-order rate constant for the alkaline hydrolysis was determined
# Assay type: ADME
row,Structure (SMILES),kHO
1,COc1ccc(C(=O)OCN2C(=O)c3ccccc3C2=O)cc1,33.9 M⁻¹ s⁻¹
2,O=C1c2ccccc2C(=O)N1CO[N+](=O)[O-],79.7 M⁻¹ s⁻¹
3,CN1C(=O)c2ccccc2C1=O,37.5 M⁻¹ s⁻¹
4,CC1(C)S[C@@H]2[C@H](NC(=O)Cc3ccccc3)C(=O)N2[C@H]1C(=O)OCN1C(=O)c2ccccc2C1=O,65.6 M⁻¹ s⁻¹
5,O=C(OCN1C(=O)c2ccccc2C1=O)c1ccc(Cl)cc1,56.7 M⁻¹ s⁻¹
6,O=C(OCN1C(=O)c2ccccc2C1=O)c1ccc([N+](=O)[O-])cc1,76.8 M⁻¹ s⁻¹
7,O=C(OCN1C(=O)c2ccccc2C1=O)c1ccccc1,50.4 M⁻¹ s⁻¹
8,O=C1c2ccccc2C(=O)N1CCl,105.8 M⁻¹ s⁻¹
9,O=C(OCN1C(=O)c2ccc([N+](=O)[O-])cc2C1=O)c1ccccc1,559 M⁻¹ s⁻¹
10,Cc1ccc2c(c1)C(=O)N(COC(=O)c1ccccc1)C2=O,27.3 M⁻¹ s⁻¹
11,COCN1C(=O)c2ccccc2C1=O,35.3 M⁻¹ s⁻¹
